# Results taken from US20180015051A1, “MODULATORS OF ALPHA-DICARBONYL DETOXIFICATION AND THEIR USE FOR THE TREATMENT OF DIABETIC PATHOLOGIES” (Buck Institute for Research on Aging, priority 2016, published 2018).
# Assays:
# native HEK293T cells = assay: Calcium imaging of native HEK293T cells (GFP only); type: cell-based
# Method: (§1) Appropriate HEK293T-derived cells were seeded on collagen-coated glass bottom culture dishes (MatTek Corporation). Cells were loaded with 10 pM of Rhod-3 AM (Life Technology) for 30 min at 37° C. After 30 min they were washed twice with standard Tyrode's solution (135 mM NaCl, 4 mM KCl, 10 mM glucose, 10 mM HEPES, 2 mM CaCl2, and 1 mM MgCl2 at pH=7.4) at room temperature. Calcium imaging was performed on an Olympus BX51WI Axiovert microscope under a 60× objective. Fluorescent images were documented upon sequential excitation with 555 nm followed by 484 nm with a Roper CoolSnap CCD camera. After establishing a baseline 555/484 ratio, methylglyoxal or other agonists were diluted with Tyrode's solution (100 pM or 1 mM final concentration) and were perfused into cells. Images were processed with the MetaFlour (Olympus) software.
# TRPA1 (RAT) = target: T1, TRPA1 (RAT) (Rattus norvegicus, UniProt Q6RI86); assay: Calcium imaging of HEK293T cells (Rhod-3 AM), rat TRPA1; type: cell-based; conditions: HEK293T transfected with rat TRPA1 and GFP; 100 pM or 1 mM MGO
# T1 construct: expressed in transfected cells; host or cells: HEK293T
# Method: as §1
# DAF-16/FOXO = assay: DAF-16::GFP nuclear localization; type: in vivo, Caenorhabditis elegans; conditions: 7 mM MGO vs water; heat shock positive control
# Method: FIG. 11, panels A-E, SKN-1/Nrf2 activation due to exogenous MGO treatment and specificity of downstream response to a-DC stress. Related to FIG. 3. (A) Quantification (left) and fluorescence microscopy images (right) of GFP foci in gst-4p::gfp animals reared on empty vector (EV, L4440) or skn-1 RNAi supplemented with water (control) or 7 mM MGO. Foci are marked by white arrows. n=91. Scale bar 0.15 mm. […] Animals were categorized as follows: ‘high’ for strong GFP signal throughout the intestine, ‘medium’ for GFP signal in the anterior or posterior section of the intestine and ‘low’ for weak or no signal. n=100. (C) qPCR analysis of SKN-1 target genes, gst-4 and gcs-1 in N2 animals reared on EV or skn-1 RNAi supplemented with water (control, −) or 7 mM MGO (+). The data is normalized to the corresponding expression levels in N2 (EV, water), represented by the dotted line. (D) Fluorescence microscopy images depicting nuclear localization of DAF-16::GFP and SKN-1::GFP supplemented with water (control) or 7 mM MGO. Heat shock was used as a positive control to drive DAF-16 nuclear localization. Red arrows point towards nuclear localized transcription factors (SKN-1 and DAF-16). Scale bar 20 pm. (E) Fluorescence microscopy images to observe GFP foci in glod-4;gst-4p::gfp animals reared on empty vector (EV, L4440), sgk-1, sek-1, or pmk-1 RNAi. Scale bar 20 pm.
# T1 sequence (Q6RI86 whole entry): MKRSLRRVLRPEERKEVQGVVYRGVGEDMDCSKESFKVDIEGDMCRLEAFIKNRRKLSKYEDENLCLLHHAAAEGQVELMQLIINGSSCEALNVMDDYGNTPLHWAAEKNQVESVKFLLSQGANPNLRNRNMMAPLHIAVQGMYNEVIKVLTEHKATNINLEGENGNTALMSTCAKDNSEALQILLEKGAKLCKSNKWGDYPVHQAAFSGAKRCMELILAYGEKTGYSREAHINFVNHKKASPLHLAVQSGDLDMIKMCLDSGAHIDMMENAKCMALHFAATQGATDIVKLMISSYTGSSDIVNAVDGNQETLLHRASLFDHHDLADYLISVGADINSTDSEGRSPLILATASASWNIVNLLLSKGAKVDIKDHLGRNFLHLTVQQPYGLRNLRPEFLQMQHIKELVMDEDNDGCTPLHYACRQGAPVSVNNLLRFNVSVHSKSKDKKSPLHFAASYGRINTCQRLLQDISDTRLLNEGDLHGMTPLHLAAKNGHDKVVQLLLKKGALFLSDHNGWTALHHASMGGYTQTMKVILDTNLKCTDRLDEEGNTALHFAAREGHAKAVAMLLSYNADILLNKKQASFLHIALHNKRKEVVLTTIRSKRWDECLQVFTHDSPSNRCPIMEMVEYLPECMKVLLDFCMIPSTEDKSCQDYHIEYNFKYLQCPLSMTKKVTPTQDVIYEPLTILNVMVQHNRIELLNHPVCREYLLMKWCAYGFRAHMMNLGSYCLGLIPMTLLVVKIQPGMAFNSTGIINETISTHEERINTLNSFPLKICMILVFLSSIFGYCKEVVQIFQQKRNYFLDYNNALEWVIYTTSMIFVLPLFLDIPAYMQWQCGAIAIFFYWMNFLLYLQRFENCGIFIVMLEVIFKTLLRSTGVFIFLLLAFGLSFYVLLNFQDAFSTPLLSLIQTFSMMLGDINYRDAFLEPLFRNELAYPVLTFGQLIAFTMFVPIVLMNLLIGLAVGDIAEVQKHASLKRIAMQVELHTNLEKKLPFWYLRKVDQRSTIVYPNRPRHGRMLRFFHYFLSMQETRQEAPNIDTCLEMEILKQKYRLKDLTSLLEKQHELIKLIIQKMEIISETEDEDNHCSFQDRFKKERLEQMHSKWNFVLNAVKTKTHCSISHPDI
compound,measurement,setting,value
"CC(=O)C=O [MGO, methylglyoxal]",Ca2+ flux in native HEK293T cells (Rhod-3 AM),native HEK293T cells,neither compounds resulted in Ca^+2 flux
same,Ca2+ flux (Rhod-3 AM fluorescence ratio 555/484 nm),TRPA1 (RAT),induce a similar Ca^2+ flux
same,DAF-16/FOXO nuclear localization,DAF-16/FOXO,failed to trigger
